Patent US20180192601A1, “Composition and Process for Producing Plants Using Anthers of Jatropha Species” (Reliance Industries Limited, priority 2017, published 2018)

Columns and labels:
Assay type in all cases: cell-based, Jatropha Curcas
anthers of Jatropha = experiment: Callus induction (callus formation) from anthers on callus induction composition
Method: The flower bud of about 2.5 mm were selected for excision of anthers. The flower buds were blot dried with several layers of sterile filter papers to remove excess moisture.
The anthers were excised from unopened flower buds in the laminar air flow (sterile hood) under aseptic conditions.
About 10 to 12 anthers were inoculated into culture tubes comprising the composition of the present disclosure for callus induction. The inoculated culture tubes were incubated in dark at a temperature of about 25±1° C. for a period ranging from about 25 days to 30 days. The culture tubes were replenished with the composition every three weeks for high frequency induction of callus. […]

[1] = system: embryogenic calli of Jatropha anthers; experiment: Plant regeneration from embryogenic calli of Jatropha anthers
Method: The calli of size ranging from about 0.5 cm to 1.0 cm (breadth) were divided into small pieces and inoculated in the culture tubes comprising the composition of the present disclosure for induction of somatic embryogenesis.
The culture tubes showing the developed somatic embryoids were transferred to composition of the present disclosure for somatic embryo maturation and incubated in light culture room for about 16 hours under photoperiod (provided by cool while fluorescent lamp) and under dark for about 8 hours at a temperature of about 25±1° C. This process is continued until somatic embryos get matured and small shoots are visible.
Regeneration of embryogenic calli or embryoids was stimulated and maintained on various combinations of MSB media. Regenerated shoots were transferred to rooting medium for root development.
Table 3 illustrates the effect of different concentration of IBA individually and in combination with BAP and Kinetin of different concentrations on plant regeneration from embryogenic calli of Jatropha anthers.

[2] = system: matured embryoids or small plantlets of Jatropha; experiment: Embryo germination and rooting of seedling
Method: The matured embryoids with the photoperiod of 16 hrs light and 8 hrs dark or small plantlets were transferred to the composition of the present disclosure and incubated at temperature ranging from about 25° C. to 28° C. for period of about 25 days to 30 days, for germination, for proliferation of roots and further elongation of shoots.
Table 4 illustrates the effect of different concentrations of IBA individually and in combination of with various concentrations of phloroglucinol and GA3 on embryo germination and rooting of seedling. Among the tested concentrations, IBA-0.1 mg/l, phloroglucinol—0.5 mg/l; Gibberellic acid-0.5 mg/l observed to be effective in producing more number of roots (6 roots/shoot) in 80% of the cultures; employing the composition comprising 100 ml of MS macro elements (10× concentration), about 25 ml of MS micro elements (100× concentration) about 10 ml of MS vitamins (200× concentration); citric aicd—40 mg/l; PVP—250 mg/l; Ascorbic acid—55 mg/l; myo inositol—100 mg/L; sucrose 20 g/L. Phytagel 1.5 g/l.

## O=C(O)COc1ccc(Cl)cc1Cl [2,4-D, 2,4-dichloro phenoxy acetic acid]
Anthers of Jatropha; 2,4-D 0.5 mg/L
  Callus formation (%): 2%
Anthers of Jatropha; 2,4-D 1 mg/L
  Callus formation (%): 2%
Anthers of Jatropha; 2,4-D 2 mg/L
  Callus formation (%): 10%
Anthers of Jatropha; 2,4-D 3 mg/L
  Callus formation (%): 20%
Anthers of Jatropha; 2,4-D 4 mg/L
  Callus formation (%): 35%
Anthers of Jatropha; 2,4-D 5 mg/L
  Callus formation (%): 45%

## indole butyric acid [IBA]
[1]; IBA 0.1 mg/L
  % of cultures showed regeneration: 0.0%
  No of Plants/explant: 0 Plants/explant
[1]; IBA 0.2 mg/L
  % of cultures showed regeneration: 0.0%
  No of Plants/explant: 0 Plants/explant
[1]; IBA 1.0 mg/L
  % of cultures showed regeneration: 0.0%
  No of Plants/explant: 0 Plants/explant
[1]; IBA 2.0 mg/L
  % of cultures showed regeneration: 0.0%
  No of Plants/explant: 0 Plants/explant
[1]; IBA 5.0 mg/L
  % of cultures showed regeneration: 0.0%
  No of Plants/explant: 0 Plants/explant
[2]; IBA 0.1 mg/L
  % of Embryos Germinated: 0.0%
  No. of roots/shoot: 0 roots/shoot
[2]; IBA 0.2 mg/L
  % of Embryos Germinated: 0.0%
  No. of roots/shoot: 0 roots/shoot
[2]; IBA 1.0 mg/L
  % of Embryos Germinated: 0.0%
  No. of roots/shoot: 0 roots/shoot
[2]; IBA 2.0 mg/L
  % of Embryos Germinated: 0.0%
  No. of roots/shoot: 0 roots/shoot
[2]; IBA 5.0 mg/L
  % of Embryos Germinated: 0.0%
  No. of roots/shoot: 0 roots/shoot
